Test: xn = mol fraction of the nth substance listed
Settings: 101 kPa, Liquid

CCO [ethanol] + O
Settings | mass density [kg/m3] | viscosity [mPa·s]
298.15 K, x2 = 0.0998 | 797.6 | –
298.15 K, x2 = 0.2009 | – | 1.407
298.15 K, x2 = 0.2018 | 810.78 | –
298.15 K, x2 = 0.3001 | – | 1.558
298.15 K, x2 = 0.3085 | 826.73 | –
298.15 K, x2 = 0.4016 | – | 1.761
298.15 K, x2 = 0.4145 | 843.26 | –
298.15 K, x2 = 0.5001 | 858.65 | 1.946
298.15 K, x2 = 0.6 | – | 2.166
298.15 K, x2 = 0.6205 | 885.56 | –
298.15 K, x2 = 0.7 | – | 2.342
298.15 K, x2 = 0.7005 | 904.69 | –
298.15 K, x2 = 0.7992 | 933.6 | –
298.15 K, x2 = 0.8 | – | 2.39
298.15 K, x2 = 0.9 | – | 1.923
298.15 K, x2 = 0.9051 | 965.51 | –
318.15 K, x2 = 0.1 | 780.53 | 0.848
318.15 K, x2 = 0.2 | – | 0.951
318.15 K, x2 = 0.201 | 793.6 | –
318.15 K, x2 = 0.3001 | 807.71 | 1.003
318.15 K, x2 = 0.4004 | 823.81 | –
318.15 K, x2 = 0.4036 | – | 1.09
318.15 K, x2 = 0.5002 | – | 1.168
318.15 K, x2 = 0.5003 | 840.31 | –
318.15 K, x2 = 0.5998 | 863.31 | –
318.15 K, x2 = 0.6 | – | 1.243
318.15 K, x2 = 0.7 | – | 1.298
318.15 K, x2 = 0.7001 | 888.76 | –
318.15 K, x2 = 0.8001 | 919.19 | –
318.15 K, x2 = 0.8007 | – | 1.293
318.15 K, x2 = 0.9 | 952.47 | 0.977

CCOC(C)=O [ethyl acetate] + CCO
Settings | mass density [kg/m3] | viscosity [mPa·s]
298.15 K, x1 = 0.1 | 801.5 | 0.848
298.15 K, x1 = 0.1992 | 816.25 | –
298.15 K, x1 = 0.2 | – | 0.707
298.15 K, x1 = 0.3 | – | 0.614
298.15 K, x1 = 0.3006 | 829.52 | –
298.15 K, x1 = 0.3949 | 840.61 | –
298.15 K, x1 = 0.4 | – | 0.56
298.15 K, x1 = 0.5 | – | 0.513
298.15 K, x1 = 0.5001 | 852.04 | –
298.15 K, x1 = 0.5987 | 861.64 | –
298.15 K, x1 = 0.6 | – | 0.488
298.15 K, x1 = 0.7 | 870.79 | 0.465
298.15 K, x1 = 0.7981 | 879.06 | –
298.15 K, x1 = 0.8 | – | 0.448
298.15 K, x1 = 0.9 | 886.96 | 0.434
298.15 K, x1 = 0.9501 | 890.81 | –
318.15 K, x1 = 0.1 | 783.09 | 0.624
318.15 K, x1 = 0.2 | – | 0.535
318.15 K, x1 = 0.2001 | 796.45 | –
318.15 K, x1 = 0.3 | 808.31 | –
318.15 K, x1 = 0.3007 | – | 0.471
318.15 K, x1 = 0.4 | – | 0.432
318.15 K, x1 = 0.4001 | 819.37 | –
318.15 K, x1 = 0.5 | 829.53 | 0.412
318.15 K, x1 = 0.6 | 838.75 | –
318.15 K, x1 = 0.6003 | – | 0.387
318.15 K, x1 = 0.7 | 847.18 | –
318.15 K, x1 = 0.7006 | – | 0.374
318.15 K, x1 = 0.8 | – | 0.364
318.15 K, x1 = 0.8001 | 855.16 | –
318.15 K, x1 = 0.8999 | 862.6 | –
318.15 K, x1 = 0.9 | – | 0.36

CCOC(C)=O [ethyl acetate] + O
Settings | mass density [kg/m3] | viscosity [mPa·s]
298.15 K, x2 = 0.0258 | – | 0.436
298.15 K, x2 = 0.0269 | 895.32 | –
298.15 K, x2 = 0.045 | – | 0.444
298.15 K, x2 = 0.0469 | 896.13 | –
298.15 K, x2 = 0.0722 | 897.09 | –
298.15 K, x2 = 0.0748 | – | 0.456
298.15 K, x2 = 0.0853 | – | 0.46
298.15 K, x2 = 0.0892 | 897.9 | –
298.15 K, x2 = 0.1045 | 898.48 | –
298.15 K, x2 = 0.1053 | – | 0.468
298.15 K, x2 = 0.1249 | 899.5 | –
298.15 K, x2 = 0.1258 | – | 0.476
318.15 K, x2 = 0.0249 | 870.81 | –
318.15 K, x2 = 0.025 | – | 0.362
318.15 K, x2 = 0.0496 | – | 0.368
318.15 K, x2 = 0.0524 | 871.8 | –
318.15 K, x2 = 0.075 | – | 0.373
318.15 K, x2 = 0.0766 | 872.73 | –
318.15 K, x2 = 0.0999 | – | 0.379
318.15 K, x2 = 0.1003 | 873.94 | –
318.15 K, x2 = 0.1254 | – | 0.385
318.15 K, x2 = 0.1255 | 875.08 | –
